Measurements as given in patent publication US20200015478A1, “ANTIBACTERIAL COMPOSITION CONTAINING CARYOLAN-1-OL” (INDUSTRY-ACADEMIC COOPERATION FOUNDATION GYEONGSANG …, priority 2016, published 2020).

Tested on: Botrytis cinerea
Test: Mycelium growth rate of Botrytis cinerea with synthesized caryolan-1-ol vapour from paper disc
Format: cell-based
Conditions: Botrytis cinerea on PDA, 10 μl acetone solution on paper disc, sealed, 27° C., 4 days, FIG. 6
Description: Next, in order to verify the antibacterial activity of the synthesized caryolan-1-ol, PDA (Potato starch 4 g, dextrose 20 g, Agar 20 g with respect to 1 liter) medium was prepared so as to allow 60 mm Petri dishes to have 12 ml space. Botrytis cinerea was inoculated with a radius of 2 mm Based on the concentration at which caryolan-1-ol was completely gaseous, caryolan-1-ol was dissolved in acetone, and then the solution was treated to the paper disc placed on a lid at 10 μl each. After sealing, they were cultured at 27° C., and the growth rate of mycelium was measured for 4 days. The growth rate for the acetone treatment group was determined.

CC12CCCC(O)(C1)C1CC(C)(C)C1CC2 (stereo not shown) [caryolan-1-ol]
growth rate of mycelium relative to acetone treatment group: significantly inhibited the growth
